The text below walks through data of patent EP0531958A1, “6-Aminoquinolones, their synthesis and their use as antibacterial agents” (MEDIOLANUM FARMACEUTICI S.P.A., priority 1991, dated 1993).

Type in all cases: cell-based
The subject of one experiment is Gram +. Put plainly: MIC test, average over the 5 gram-positive test germs. The following applies: 24 h. Here is the method:
(§1) As to the antibacterial activity, there was determined the Least (Minimum) Inhibiting Concentration (MIC), by working according to the following operative conditions.
(§2) There were used suspensions of test germs (5 gram-positive and 15 gram-negative) having a known titre, kept freezed at -80°C and diluted, at the time of use, in peptonized water up to a concentration of 1-2.10⁷ cfu/ml.
(§3) A few mg of the products, according to the invention were weighed sufficient for preparing parent solutions in DMSO + NaOH (1N) containing 2560 µg/ml (64µg/ml/dish). From the thus prepared parent solutions there were prepared 12 serial dilutions (1:2) down to the concentration of 1.25 µg/ml.
(§4) 0.5 ml of the different dilutions of each product were distributed on dishes containing 19.5 ml of agarized medium (TSA), maintained in a fluid state at the temperature of 50°C. After slight stirring, the dishes were made to solidify and dry under hood (laminar flow).
(§5) The MIC tests (Least or "Minimum" Inhibiting Concentration) were performed by using a Steers multiwell inoculator having 36 wells, each containing 200 µl of bacterial suspension.
(§6) After inoculation, the dishes were placed into a thermostat and checked after 24 h of incubation at 35°C.
(§7) The MIC is defined as the lowermost product concentration (µg/ml) inhibiting the visible growth of the microorganisms.

The test system of experiment [1] is Pseudomonas aeruginosa CNUR 4. Put plainly: MIC test, agar dilution with Steers multiwell inoculator. Conditions: CNUR4, TSA dishes, 24 h at 35°C, read-out: Minimum Inhibiting Concentration. The method, then:
as §1, §2, §3, §4, §5, §6, §7
For orientation: In agar dilution, organisms are placed on agar that contains the substance at set levels.

In experiment [2] the test system is Klebsiella pneumoniae ATCC 10031. The description is as above. The following applies: ATCC10031, TSA dishes, 24 h at 35°C, read-out: Minimum Inhibiting Concentration. Here is the method: as §1, §2, §3, §4, §5, §6, §7
Experiment [3] relates to Staphylococcus epidermidis CPHL A2. The experiment is described as above. Conditions: CPHLA2, TSA dishes, 24 h at 35°C, read-out: Minimum Inhibiting Concentration. Here is the method:
as §1, §2, §3, §4, §5, §6, §7

Experiment [4] has as its system Acinebacter calcoloaceticus OSMPV 1130. The experiment is described as above. Conditions: TSA dishes, 24 h at 35°C, read-out: Minimum Inhibiting Concentration. The method, then:
as §1, §2, §3, §4, §5, §6, §7

The subject of a further experiment is Escherichia coli 120. Described as above. Conditions: TSA dishes, 24 h at 35°C, read-out: Minimum Inhibiting Concentration. Here is the method:
as §1, §2, §3, §4, §5, §6, §7

Experiment [5] has as its system Staphylococcus aureus MPR 5. The description is as above. Conditions: MPR5, TSA dishes, 24 h at 35°C, read-out: Minimum Inhibiting Concentration. Here is the method:
as §1, §2, §3, §4, §5, §6, §7

The subject of another experiment is Escherichia coli CNUR 8. Described as above. The following applies: CNUR8, TSA dishes, 24 h at 35°C, read-out: Minimum Inhibiting Concentration. Here is the method:
as §1, §2, §3, §4, §5, §6, §7

For experiment [6], the system named is Staphylococcus aureus ATCC 6538. The description is as above. The following applies: ATCC6538, TSA dishes, 24 h at 35°C, read-out: Minimum Inhibiting Concentration. Here is the method: as §1, §2, §3, §4, §5, §6, §7
Experiment [7] deals with Staphylococcus epidermidis HCF Berset C. Described as above. The following applies: TSA dishes, 24 h at 35°C, read-out: Minimum Inhibiting Concentration. The method, then: as §1, §2, §3, §4, §5, §6, §7
Experiment [8] has as its system Enterobacter cloacae OMNF 1153. The experiment is described as above. The following applies: OMNF1153, TSA dishes, 24 h at 35°C, read-out: Minimum Inhibiting Concentration. The method, then: as §1, §2, §3, §4, §5, §6, §7
In another experiment the test system is Shighella enteritidis. The experiment is described as above. Conditions: TSA dishes, 24 h at 35°C, read-out: Minimum Inhibiting Concentration. The method, then:
as §1, §2, §3, §4, §5, §6, §7

Experiment [9] concerns Escherichia coli ATCC 8739. The experiment is described as above. Conditions: ATCC8739, TSA dishes, 24 h at 35°C, read-out: Minimum Inhibiting Concentration. The method, then:
as §1, §2, §3, §4, §5, §6, §7

The test system of experiment [10] is Pseudomonas aeruginosa CNUR 2. Described as above. The following applies: CNUR2, TSA dishes, 24 h at 35°C, read-out: Minimum Inhibiting Concentration. The method, then:
as §1, §2, §3, §4, §5, §6, §7

The subject of the next experiment is Escherichia coli ISF 432. The experiment is described as above. Conditions: ISF432, TSA dishes, 24 h at 35°C, read-out: Minimum Inhibiting Concentration. Here is the method: as §1, §2, §3, §4, §5, §6, §7
A further experiment deals with Escherichia coli CNUR 1. The experiment is described as above. The following applies: CNUR1, TSA dishes, 24 h at 35°C, read-out: Minimum Inhibiting Concentration. The method, then:
as §1, §2, §3, §4, §5, §6, §7

Experiment [11] has as its system Providencia stuardii CNUR 5. The description is as above. The following applies: CNUR5, TSA dishes, 24 h at 35°C, read-out: Minimum Inhibiting Concentration. Here is the method:
as §1, §2, §3, §4, §5, §6, §7

Experiment [12] has as its system Pseudomonas aeruginosa ATCC 9027. Described as above. The following applies: ATCC9027, TSA dishes, 24 h at 35°C, read-out: Minimum Inhibiting Concentration. The method, then: as §1, §2, §3, §4, §5, §6, §7
Experiment [13] has as its system Streptococcus facealis LEP Br. Described as above. Conditions: TSA dishes, 24 h at 35°C, read-out: Minimum Inhibiting Concentration. The method, then: as §1, §2, §3, §4, §5, §6, §7
Experiment [14] deals with Enterobacter cloacae OMNF 1174. The experiment is described as above. The following applies: OMNF1174, TSA dishes, 24 h at 35°C, read-out: Minimum Inhibiting Concentration. The method, then:
as §1, §2, §3, §4, §5, §6, §7

Another experiment relates to Proteus vulgaris CNUR 6. Described as above. Conditions: CNUR6, TSA dishes, 24 h at 35°C, read-out: Minimum Inhibiting Concentration. Here is the method:
as §1, §2, §3, §4, §5, §6, §7

A further experiment concerns Gram -. Put plainly: MIC test, average over the 15 gram-negative test germs. The following applies: 24 h. Here is the method:
as §1, §2, §3, §4, §5, §6, §7

[15] abbreviates: geometrical average of the MIC over the 5 Gram + strains, read-out: Geometrical Average.
[16] abbreviates: geometrical average of the MIC over the 15 Gram - strains, read-out: Geometrical Average.
[17] abbreviates: mean log of the MIC over the 15 Gram - strains, read-out: Log (converted).

≈ marks a conversion by molar mass, not a printed value. Where two headings read alike, the source gives them in different places.

Turning to `CC1CN(c2cc3c(cc2N)c(=O)c(C(=O)O)cn3C2CC2)CC(C)N1` (stereo not drawn) [Compound 11], the MIC with Gram + (setting [15]) is 6.96 µg/mL; with Gram + (read-out: Log (converted)) it was 6.97 µg/mL (≈ 19.5 µM); in experiment [1], 64 µg/mL (≈ 180 µM); in [2], 0.03 µg/mL (≈ 0.0842 µM); in experiment [3], 2 µg/mL (≈ 5.61 µM); in experiment [4], 8 µg/mL (≈ 22.4 µM). For the same compound, the MIC stood at 0.12 µg/mL (≈ 0.337 µM) in the experiment with Escherichia coli 120; 8 µg/mL (≈ 22.4 µM) in experiment [5]; 0.25 µg/mL (≈ 0.701 µM) with Escherichia coli CNUR 8; 8 µg/mL (≈ 22.4 µM) in experiment [6]; 4 µg/mL (≈ 11.2 µM) in experiment [7]; 0.5 µg/mL (≈ 1.4 µM) in [8]. The MIC was found to be 0.25 µg/mL (≈ 0.701 µM) in the experiment on Shighella enteritidis; 0.03 µg/mL (≈ 0.0842 µM) in experiment [9]; 8 µg/mL (≈ 22.4 µM) in experiment [10]; 0.03 µg/mL (≈ 0.0842 µM) with Escherichia coli ISF 432; 0.25 µg/mL (≈ 0.701 µM) in the experiment on Escherichia coli CNUR 1; 2 µg/mL (≈ 5.61 µM) in experiment [11]. Moreover, the MIC in [12] was 2 µg/mL (≈ 5.61 µM); in experiment [13], 32 µg/mL (≈ 89.8 µM); in experiment [14] it was 0.5 µg/mL (≈ 1.4 µM); in the experiment on Proteus vulgaris CNUR 6 it was 64 µg/mL (≈ 180 µM); with Gram - (setting [16]), 0.75 µg/mL (≈ 2.1 µM); with Gram - (setting [17]) it was 0.75 µg/mL (≈ 2.1 µM).

Consider `CN1CCN(c2c(N)c(N)c3c(=O)c(C(=O)O)cn(C4CC4)c3c2F)CC1` [Compound 28], for which the MIC with Gram + (setting [15]) is 3.03 µg/mL; with Gram + (read-out: Log (converted)), 3.03 µg/mL (≈ 8.08 µM); in experiment [1], 64 µg/mL (≈ 170 µM); in experiment [2], 0.03 µg/mL (≈ 0.0799 µM); in experiment [3], 4 µg/mL (≈ 10.7 µM); in experiment [4], 2 µg/mL (≈ 5.33 µM). Further, the MIC in the experiment with Escherichia coli 120 is 0.12 µg/mL (≈ 0.32 µM); in experiment [5], 2 µg/mL (≈ 5.33 µM); with Escherichia coli CNUR 8, 0.12 µg/mL (≈ 0.32 µM); in experiment [6], 2 µg/mL (≈ 5.33 µM); in experiment [7], 4 µg/mL (≈ 10.7 µM); in experiment [8] it was 0.25 µg/mL (≈ 0.666 µM). In addition, the MIC in the experiment with Shighella enteritidis worked out at 0.25 µg/mL (≈ 0.666 µM); in experiment [9], 0.03 µg/mL (≈ 0.0799 µM); in experiment [10], 8 µg/mL (≈ 21.3 µM); with Escherichia coli ISF 432 it was 0.03 µg/mL (≈ 0.0799 µM); in the experiment with Escherichia coli CNUR 1, 0.25 µg/mL (≈ 0.666 µM); in experiment [11], 2 µg/mL (≈ 5.33 µM). The MIC in experiment [12] is 4 µg/mL (≈ 10.7 µM); in experiment [13], 4 µg/mL (≈ 10.7 µM); in experiment [14] it was 0.12 µg/mL (≈ 0.32 µM); in the experiment on Proteus vulgaris CNUR 6, 64 µg/mL (≈ 170 µM); in the experiment on Gram - (setting [16]) it was 0.592 µg/mL (≈ 1.58 µM); in the experiment with Gram - (setting [17]), 0.592 µg/mL (≈ 1.58 µM).

As to `CN1CCN(c2cc3c(cc2N)c(=O)c(C(=O)O)cn3-c2ccc(F)cc2)CC1` [Compound 50], the MIC with Gram + (setting [15]) was 10.6 µg/mL; in the experiment with Gram + (read-out: Log (converted)), 10.5 µg/mL (≈ 26.6 µM); in experiment [1] it was 128 µg/mL (≈ 323 µM); in experiment [2], 0.12 µg/mL (≈ 0.303 µM); in [3], 8 µg/mL (≈ 20.2 µM); in [4], 16 µg/mL (≈ 40.4 µM). The MIC in the experiment with Escherichia coli 120 was found to be 0.5 µg/mL (≈ 1.26 µM); in [5], 4 µg/mL (≈ 10.1 µM); in the experiment with Escherichia coli CNUR 8, 0.5 µg/mL (≈ 1.26 µM); in experiment [6], 8 µg/mL (≈ 20.2 µM); in [7], 8 µg/mL (≈ 20.2 µM); in experiment [8] it was 4 µg/mL (≈ 10.1 µM). Besides, the MIC turned out to be 4 µg/mL (≈ 10.1 µM) in the experiment with Shighella enteritidis; 0.25 µg/mL (≈ 0.631 µM) in experiment [9]; 32 µg/mL (≈ 80.7 µM) in experiment [10]; 0.25 µg/mL (≈ 0.631 µM) in the experiment on Escherichia coli ISF 432; 4 µg/mL (≈ 10.1 µM) in the experiment with Escherichia coli CNUR 1; 4 µg/mL (≈ 10.1 µM) in [11]. The MIC in experiment [12] was 8 µg/mL (≈ 20.2 µM); in experiment [13] it was 64 µg/mL (≈ 161 µM); in [14] it was 4 µg/mL (≈ 10.1 µM); in the experiment on Proteus vulgaris CNUR 6, 128 µg/mL (≈ 323 µM); in the experiment on Gram - (setting [16]), 3.47 µg/mL (≈ 8.76 µM); with Gram - (setting [17]) it was 3.48 µg/mL (≈ 8.77 µM).
